Experimental data as given in article PMC3997483, “Aminostyrylbenzofuran Directly Reduces Oligomeric Amyloid-β and Reverses Cognitive Deficits in Alzheimer Transgenic Mice” (PLoS ONE, 2014).

Experiments:
CYP1A2 = target: T1, CYP1A2 (Homo sapiens, UniProt P05177); assay: CYP inhibition assay (Crespi, fluorescent probe); type: in vitro ADME
T1 construct: five CYP isozymes (CYP3A4, 1A2, 2C9, 2C19, and 2D6) from human LM; from tissue; host or cells: human liver microsomes
T1 sequence (P05177 1-516): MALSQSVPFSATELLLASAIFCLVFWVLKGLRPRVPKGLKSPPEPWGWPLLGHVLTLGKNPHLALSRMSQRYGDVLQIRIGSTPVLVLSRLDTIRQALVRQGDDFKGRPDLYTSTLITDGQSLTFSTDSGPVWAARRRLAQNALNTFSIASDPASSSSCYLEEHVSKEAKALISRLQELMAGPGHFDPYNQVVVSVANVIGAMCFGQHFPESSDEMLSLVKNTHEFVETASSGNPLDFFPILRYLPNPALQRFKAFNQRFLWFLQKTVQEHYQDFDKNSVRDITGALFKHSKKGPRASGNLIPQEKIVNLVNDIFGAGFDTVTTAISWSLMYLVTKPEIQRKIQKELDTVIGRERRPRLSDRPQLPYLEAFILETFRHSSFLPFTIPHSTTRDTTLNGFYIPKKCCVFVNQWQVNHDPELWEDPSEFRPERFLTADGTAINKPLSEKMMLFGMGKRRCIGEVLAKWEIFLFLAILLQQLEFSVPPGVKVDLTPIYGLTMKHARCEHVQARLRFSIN
Method: (§1) Cytochrome P450 (CYP) inhibition assay was carried out according to the principle of the Crespi assay. Fluorescent probe substrates (BD Gentest, USA) used for each CYP isozyme were: 3-cyano-7-ethoxycoumarin for CYP1A2 and CYP2C19, 7-benzyloxy-trifluoromethylcoumarin for CYP3A4, 7-methoxy-4-trifluoromethylcoumarin for CYP2C9 and 3-[2-(N,N-diethyl-N-methylamino)ethyl]-7-methoxy-4-methyl-coumarin for CYP2D6. […] All reactions were stopped by addition of 75 µL of 0.1 M tris in acetonitrile and analyzed by an LC-MS/MS product ion monitoring method on Agilent 1200 HPLC (Agilent, USA) and API-5000 mass spectrometer (Canada). IC50 value was calculated using SigmaPlot 10.0 (Systat Software Inc., USA).

CYP2C9 = target: T2, CYP2C9 (Homo sapiens, UniProt P11712); assay: CYP inhibition assay (Crespi, fluorescent probe); type: in vitro ADME
T2 construct: five CYP isozymes (CYP3A4, 1A2, 2C9, 2C19, and 2D6) from human LM; from tissue; host or cells: human liver microsomes
T2 sequence (P11712 whole entry): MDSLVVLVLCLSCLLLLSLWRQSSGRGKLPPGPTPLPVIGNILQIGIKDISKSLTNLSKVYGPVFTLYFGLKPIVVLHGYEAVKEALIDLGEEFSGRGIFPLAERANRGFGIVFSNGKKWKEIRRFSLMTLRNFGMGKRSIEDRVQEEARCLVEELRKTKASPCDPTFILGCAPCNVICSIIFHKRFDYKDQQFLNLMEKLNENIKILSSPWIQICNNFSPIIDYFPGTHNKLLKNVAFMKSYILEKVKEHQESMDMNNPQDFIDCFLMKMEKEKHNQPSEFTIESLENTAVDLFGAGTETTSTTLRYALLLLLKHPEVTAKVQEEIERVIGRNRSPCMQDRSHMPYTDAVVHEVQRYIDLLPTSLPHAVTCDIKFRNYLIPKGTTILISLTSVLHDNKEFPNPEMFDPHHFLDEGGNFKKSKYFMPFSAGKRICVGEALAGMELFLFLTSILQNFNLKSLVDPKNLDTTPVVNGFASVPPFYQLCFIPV
Method: as §1

CYP2D6 = target: T3, CYP2D6 (Homo sapiens, UniProt P10635); assay: CYP inhibition assay (Crespi, fluorescent probe); type: in vitro ADME
T3 construct: five CYP isozymes (CYP3A4, 1A2, 2C9, 2C19, and 2D6) from human LM; from tissue; host or cells: human liver microsomes
T3 sequence (P10635 whole entry): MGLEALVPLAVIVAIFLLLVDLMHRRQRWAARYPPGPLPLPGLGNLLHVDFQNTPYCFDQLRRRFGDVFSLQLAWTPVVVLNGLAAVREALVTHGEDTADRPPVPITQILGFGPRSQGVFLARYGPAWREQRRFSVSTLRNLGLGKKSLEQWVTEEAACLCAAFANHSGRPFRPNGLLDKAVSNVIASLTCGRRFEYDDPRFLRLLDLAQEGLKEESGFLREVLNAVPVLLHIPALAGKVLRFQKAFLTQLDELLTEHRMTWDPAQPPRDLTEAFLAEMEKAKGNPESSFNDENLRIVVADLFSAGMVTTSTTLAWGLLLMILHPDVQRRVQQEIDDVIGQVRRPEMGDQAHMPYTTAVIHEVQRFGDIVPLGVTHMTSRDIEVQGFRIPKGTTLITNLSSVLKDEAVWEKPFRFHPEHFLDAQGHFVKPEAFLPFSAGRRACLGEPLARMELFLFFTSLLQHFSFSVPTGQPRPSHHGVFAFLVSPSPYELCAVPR
Method: as §1

CYP3A4 = target: T4, CYP3A4 (Homo sapiens, UniProt P08684); assay: CYP inhibition assay (Crespi, fluorescent probe); type: in vitro ADME
T4 construct: five CYP isozymes (CYP3A4, 1A2, 2C9, 2C19, and 2D6) from human LM; from tissue; host or cells: human liver microsomes
T4 sequence (P08684 whole entry): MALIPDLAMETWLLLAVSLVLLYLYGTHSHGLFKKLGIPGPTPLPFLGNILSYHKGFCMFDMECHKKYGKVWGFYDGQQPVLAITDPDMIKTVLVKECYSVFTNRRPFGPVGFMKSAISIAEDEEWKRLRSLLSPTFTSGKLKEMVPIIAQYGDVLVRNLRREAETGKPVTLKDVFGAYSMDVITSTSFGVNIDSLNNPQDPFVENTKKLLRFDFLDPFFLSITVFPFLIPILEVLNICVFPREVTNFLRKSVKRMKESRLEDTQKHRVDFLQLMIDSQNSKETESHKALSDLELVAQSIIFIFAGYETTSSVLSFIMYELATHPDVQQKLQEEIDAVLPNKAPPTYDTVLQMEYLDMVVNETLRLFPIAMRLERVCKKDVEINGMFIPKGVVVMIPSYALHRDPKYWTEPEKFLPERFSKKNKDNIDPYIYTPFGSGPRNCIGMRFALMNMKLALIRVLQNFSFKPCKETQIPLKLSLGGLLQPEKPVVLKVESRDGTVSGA
Method: as §1

[1] = Partition coefficient (log P), octanol-water titration; type: physicochemical; settings: 23 ℃
Method: Dissociation constant (pKa) and partition coefficient (log P) Dissociation constant (pKa) and partition coefficient (log P) of KMS88009 were measured by a pH-method using GLpKa (Sirius, UK). pKa was measured by titrating KMS88009 solution and calculated from the shape of the titration curve. […] Log P of KMS88009 was calculated by a two-phase acid-base titration in a mixture of water and octanol. Three separate potentiometric titrations of KMS88009 were carried out at 23 ℃ in various octanol-water (0.15 M KCl) mixtures (0.5% to 50% octanol). The initial pH was adjusted to 10.0 with standardized 0.5 M NaOH prior to each titration. Titrations were performed with standardized 0.5 M HCl to pH 1.8. The pKa and log P values were calculated using RefinementPro software (Sirius, UK). Values are expressed as the mean ± SD of 3 independent experiments.

APP/PS1 TG mice [2] = assay: Contextual fear conditioning, prophylactic trial; type: in vivo, mouse; settings: vehicle TG 15.3%, WT 54.1%
APP/PS1 TG mice [3] = assay: Contextual fear conditioning, therapeutic trial; type: in vivo, mouse; settings: PO 30 mg/kg/day, 3 months, TG 20.0%
Method: Behavioral tests were performed in the following sequence: Y-maze (day 1), Morris water maze (day 4 to 12) and contextual fear conditioning (day 26 to 27). To reduce stress, contextual fear conditioning was carried out 2 weeks after the Morris water maze task. In the therapeutic trial, APP/PS1 TG mice were treated with KMS88009 (30 mg/kg/day) for 3 months from 9 to 12 months of age. Y-maze tests short-term spatial working memory. Y-maze is a 3-armed (40 L×10 W×12 H cm) horizontal maze in which the arms are symmetrically disposed at 120° angles from each other. Mice were placed at the end of one arm and allowed to move freely through the maze during a 5-min session. Arm entry was considered completed when the hind paws of the mouse were completely placed in the arm. Alternation was defined as successive entries into the 3 arms on overlapping triplet sets. The series of arm entries was recorded via video recorders. […] During each trial session, the time taken to find the hidden platform (latency) was recorded using a video camera-based Ethovision System (Nodulus, Nertherlands). […] Swimming time was recorded during mice were in the pool quadrant where the platform had been previously located. […] Fear conditioning task was measured to test the ability to learn and remember an association between an aversive experience and environmental cues. […] Freezing response was measured without CS or US. […]

In the case of `COc1ccc2cc(C=Cc3ccc(N(C)C)cc3)oc2c1` [KMS88009, 6-methoxy-2-(4-dimethylaminostyryl) benzofuran], the IC50 (CYP1A2) is reported as 0.74 ± 0.12 µM, the IC50 (CYP2C9) is reported as 22.4 ± 1.25 µM and the IC50 (CYP2D6) is reported as over 50 µM. For the same molecule, the IC50 (CYP3A4) was 9.84 ± 0.15 µM, the logP [1] was 2.4 ± 0.19 and the “freezing responses (contextual fear conditioning)” value (shortened to “freezing responses”) (APP/PS1 TG mice [2]; PO 10 mg/kg/day) was 42.3%. The “freezing responses” value (APP/PS1 TG mice [2]; PO 30 mg/kg/day) was 48.6%, the “freezing responses” value (APP/PS1 TG mice [2]; PO 100 mg/kg/day) was 49.3% and the “freezing response (contextual fear conditioning)” value (APP/PS1 TG mice [3]) was 48.3%.
